Drawing on patent US20250222169A1, “PHOTOINTIATOR, BIOINK INCLUDING THE SAME, AND METHODE OF MANUFACTURING HYDROGEL” (PUSAN NATIONAL UNIVERSITY INDUSTRY-UNIVERSITY COOPERATION …, priority 2024, published 2025), this text covers molar extinction coefficient, maximum solubility and cell viability for 1 molecule.

Data set [1] is described as follows: Molar extinction coefficient by UV-visible absorption spectra in distilled water. Format: physicochemical. Conditions: at about 405 nm, 10 mm quartz cuvettes. The source says: FIG. 5 is a graph of a molar extinction coefficient (ε)-wavelength of Examples according to the present disclosure.
The conditions of data set [2]: in water at about 25° C.
Data set [3] deals with Murine NIH-3T3 fibroblasts. Put plainly: Cytotoxicity of the photoinitiator (cell viability of fibroblasts). Format: cell-based. The settings on record: concentration of about 0.2% (w/v), about 24 hours. The protocol: Murine NIH-3T3 fibroblasts purchased from ATCC (Manassas, VA, USA) were cultured in a cell culture dish in a size of about 100 mm along with DMEM supplemented with about 10% FBS and penicillin-streptomycin (about 100 UI/ml). The cultured cells were kept at about 37° C. in a sterile culture machine (Labogene, Seoul, Korea) containing about 5% CO2 until reaching the confluence.
To conduct cell viability analysis, fibroblasts were seeded into 24-well-plates (2×10^4 cells/well) and cultured in a sterile culture machine at about 37° C. for about 12 hours, and then the media were removed.
In particular, by substituting with highly biocompatible Mg^2+ ions, it was identified that there was a remarkable effect on reduction in the cytotoxicity.

For the molecule `Cc1cc(C)c(C(=O)P(=O)([O-])c2ccccc2)c(C)c1.[Li+]` [LAP, Lithium phenyl-2,4,6-trimethylbenzoylphosphination], in data set [1], the molar extinction coefficient entry is “about 29 M^−1·cm^−1”. Moreover, the maximum solubility entry in data set [2] is recorded as “about 159.7 mM”. In data set [3], the cell viability entry was “about 46%”.
